Paper PMC10917278, “Structural insights into the modulation Of SOD1 aggregation By a fungal metabolite Phialomustin-B: Therapeutic potential in ALS” (PLOS ONE, 2024)

Key:
SOD1^L42R = target: T1, SOD1^L42R (Homo sapiens, UniProt P00441, L43R); assay: MST binding assay, site-specific mutant SOD1^L42R; conditions: PBS buffer, mutant 25 nM, PB 30.5 nM to 250 μM, 25 °C, SEM n = 3, read-out: binding affinity Kd
T1 construct: His-tag (cleaved yes); made in house; host or cells: E. coli BL21-DE3
Experimental: (§1) To further validate the binding of PB to SOD1, site-directed mutagenesis was performed for the interacting residues at the binding sites of PB. The point mutations generated on the SOD1 protein are K9F, G10P, L42R, and A123F. The MST assay was carried out on these mutants against PB (Fig 5). The dose-response curve with the highest signal-to-noise ratio, high response amplitude, and lowest error rate was selected for measuring the binding affinity (Kd) value. […] Binding at the electrostatic loop is affected majorly by mutating residues at A123 to phenylalanine and L42 to arginine. […] Taken together, the binding affinities of these mutants confirm the ligand bindings at these sites of SOD1 are specific.
(§2) Fig 5 MST interaction analysis of fluorescently labeled SOD1 mutants against PB. The binding of PB to fluorescently Cys-labeled SOD1- variants is quantified in PBS buffer. The concentration of PB varied from 30.5 nM to 250 μM, while the respective mutants were kept constant at 25 nM. MST experiments were conducted at 20% LED excitation and medium MST power at 25 °C. […] Error bars indicate the standard error of the mean, SEM (n = 3). […] The ligand PB is printed only in the titles of panels a-d, so the mutant names are used as the substance labels.
(§3) Binding studies were performed for SOD1^WT and the ligands using microscale thermophoresis (MST). […]

SOD1^K9F = target: T2, SOD1^K9F (Homo sapiens, UniProt P00441, K10F); assay: MST binding assay, site-specific mutant SOD1^K9F; conditions: PBS buffer, mutant 25 nM, PB 30.5 nM to 250 μM, 25 °C
T2 construct: His-tag (cleaved yes); made in house; host or cells: E. coli BL21-DE3
T2 sequence (P00441 whole entry K10F): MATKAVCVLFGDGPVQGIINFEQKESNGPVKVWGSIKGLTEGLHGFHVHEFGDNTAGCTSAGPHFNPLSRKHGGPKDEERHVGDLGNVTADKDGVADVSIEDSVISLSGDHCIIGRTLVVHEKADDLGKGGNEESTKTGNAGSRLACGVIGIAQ
Experimental: as §1, §2, §3

T1 sequence (P00441 whole entry L43R): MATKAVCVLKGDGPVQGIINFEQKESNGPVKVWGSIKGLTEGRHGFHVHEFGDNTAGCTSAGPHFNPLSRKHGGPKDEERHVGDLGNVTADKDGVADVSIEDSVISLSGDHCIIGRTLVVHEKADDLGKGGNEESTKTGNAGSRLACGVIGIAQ

In the case of `CCCC[C@H](C)/C=C(C)/C=C/C(=O)O` [PB, (S, 2E, 4E)-4,6-dimethyldeca-2,4-dienoic acid], the Kd (SOD1^L42R) is reported as 225 ± 4.29 µM and the “binding affinity Kd” value (SOD1^K9F) is reported as “no binding”.
